Test results: ChEMBL document CHEMBL1681676, “The design and synthesis of novel N-hydroxyformamide inhibitors of ADAM-TS4 for the treatment of osteoarthritis” (Bioorg Med Chem Lett, 2011)

These compounds were tested against Matrix metalloproteinase-14 (Homo sapiens, UniProt P50281) (assay: Inhibition of recombinant human MMP14 assessed as substrate cleavage by measuring increase in fluorescence after 16 hrs).

SMILES | IC50 [µM]
C[C@@H](C[C@@](C)(CS(=O)(=O)N1CCC(CCc2ccc(F)cc2Br)CC1)N(O)C=O)c1ncc(F)cn1 | 0.39
C[C@@H](C[C@@H](CS(=O)(=O)N1CCC(OCc2ccc(Cl)cc2Cl)CC1)N(O)C=O)c1ncc(F)cn1 | 0.18
Cc1cc(C(F)(F)F)cnc1CCC1CCN(S(=O)(=O)C[C@](C)(C[C@H](C)c2ncc(F)cn2)N(O)C=O)CC1 | 40
Cc1cc(Cl)ccc1CCC1CCN(S(=O)(=O)C[C@](C)(C[C@H](C)c2ncc(F)cn2)N(O)C=O)CC1 | 0.36
Cc1cc(CCC2CCN(S(=O)(=O)C[C@](C)(C[C@H](C)c3ncc(F)cn3)N(O)C=O)CC2)n(C)n1 | 29
C[C@@H](C[C@@](C)(CS(=O)(=O)N1CCC(CCc2ncc(C(F)(F)F)cc2Cl)CC1)N(O)C=O)c1ncc(F)cn1 | > 18

Each compound was assayed against T1, Interstitial collagenase (Homo sapiens, UniProt P03956) (assay: Inhibition of recombinant human MMP1 assessed as substrate cleavage by measuring increase in fluorescence after 16 hrs).
T1 sequence (P03956 whole entry): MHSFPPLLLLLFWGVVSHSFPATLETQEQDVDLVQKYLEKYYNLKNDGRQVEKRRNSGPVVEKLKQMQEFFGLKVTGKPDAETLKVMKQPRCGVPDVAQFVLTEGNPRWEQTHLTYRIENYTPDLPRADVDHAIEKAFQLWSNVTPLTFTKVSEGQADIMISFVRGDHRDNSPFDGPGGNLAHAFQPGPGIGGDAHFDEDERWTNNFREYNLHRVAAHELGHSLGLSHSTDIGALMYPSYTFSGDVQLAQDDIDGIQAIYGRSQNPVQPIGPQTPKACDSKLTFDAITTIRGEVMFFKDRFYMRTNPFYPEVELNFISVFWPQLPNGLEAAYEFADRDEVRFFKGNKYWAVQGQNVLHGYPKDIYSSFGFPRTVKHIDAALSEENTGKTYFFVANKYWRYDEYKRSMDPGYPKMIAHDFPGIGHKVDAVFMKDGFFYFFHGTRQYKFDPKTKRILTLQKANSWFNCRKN

SMILES | IC50 [µM]
C[C@@H](C[C@@](C)(CS(=O)(=O)N1CCC(CCc2ccc(F)cc2Br)CC1)N(O)C=O)c1ncc(F)cn1 | > 8
C[C@@H](C[C@@H](CS(=O)(=O)N1CCC(OCc2ccc(Cl)cc2Cl)CC1)N(O)C=O)c1ncc(F)cn1 | 9.7
Cc1cc(C(F)(F)F)cnc1CCC1CCN(S(=O)(=O)C[C@](C)(C[C@H](C)c2ncc(F)cn2)N(O)C=O)CC1 | > 79
Cc1cc(Cl)ccc1CCC1CCN(S(=O)(=O)C[C@](C)(C[C@H](C)c2ncc(F)cn2)N(O)C=O)CC1 | > 8.5
Cc1cc(CCC2CCN(S(=O)(=O)C[C@](C)(C[C@H](C)c3ncc(F)cn3)N(O)C=O)CC2)n(C)n1 | > 10
C[C@@H](C[C@@](C)(CS(=O)(=O)N1CCC(CCc2ncc(C(F)(F)F)cc2Cl)CC1)N(O)C=O)c1ncc(F)cn1 | > 70

Each compound was assayed against T2, A disintegrin and metalloproteinase with thrombospondin motifs 4 (Homo sapiens, UniProt O75173) (assay: Inhibition of ADAMTS-4 assessed as substrate cleavage by measuring increase in fluorescence after 16 hrs).
T2 sequence (O75173 whole entry): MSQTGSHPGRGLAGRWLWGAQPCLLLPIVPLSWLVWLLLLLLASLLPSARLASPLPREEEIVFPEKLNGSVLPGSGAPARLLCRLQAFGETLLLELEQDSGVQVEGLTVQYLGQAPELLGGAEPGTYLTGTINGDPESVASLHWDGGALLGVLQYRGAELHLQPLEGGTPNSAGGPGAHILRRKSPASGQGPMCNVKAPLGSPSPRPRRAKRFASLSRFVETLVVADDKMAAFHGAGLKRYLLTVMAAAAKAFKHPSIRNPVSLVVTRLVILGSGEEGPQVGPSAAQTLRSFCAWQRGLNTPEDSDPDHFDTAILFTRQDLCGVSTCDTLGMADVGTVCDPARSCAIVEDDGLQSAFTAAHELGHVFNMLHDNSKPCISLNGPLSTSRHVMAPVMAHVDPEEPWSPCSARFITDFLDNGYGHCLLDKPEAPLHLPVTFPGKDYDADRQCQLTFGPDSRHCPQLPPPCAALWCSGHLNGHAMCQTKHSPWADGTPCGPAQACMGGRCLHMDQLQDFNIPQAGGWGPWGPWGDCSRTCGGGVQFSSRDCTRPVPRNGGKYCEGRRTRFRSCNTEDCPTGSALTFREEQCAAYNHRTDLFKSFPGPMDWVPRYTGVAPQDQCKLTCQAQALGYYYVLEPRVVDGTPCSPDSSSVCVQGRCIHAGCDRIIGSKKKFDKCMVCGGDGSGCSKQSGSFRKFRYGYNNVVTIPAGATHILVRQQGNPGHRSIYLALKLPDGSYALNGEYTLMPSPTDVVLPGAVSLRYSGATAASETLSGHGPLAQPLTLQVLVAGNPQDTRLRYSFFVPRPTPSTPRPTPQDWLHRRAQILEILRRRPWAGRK

SMILES | IC50 [µM]
C[C@@H](C[C@@](C)(CS(=O)(=O)N1CCC(CCc2ccc(F)cc2Br)CC1)N(O)C=O)c1ncc(F)cn1 | 0.00048
C[C@@H](C[C@@H](CS(=O)(=O)N1CCC(OCc2ccc(Cl)cc2Cl)CC1)N(O)C=O)c1ncc(F)cn1 | 0.001
Cc1cc(C(F)(F)F)cnc1CCC1CCN(S(=O)(=O)C[C@](C)(C[C@H](C)c2ncc(F)cn2)N(O)C=O)CC1 | 0.0021
Cc1cc(Cl)ccc1CCC1CCN(S(=O)(=O)C[C@](C)(C[C@H](C)c2ncc(F)cn2)N(O)C=O)CC1 | 0.00036
Cc1cc(CCC2CCN(S(=O)(=O)C[C@](C)(C[C@H](C)c3ncc(F)cn3)N(O)C=O)CC2)n(C)n1 | 0.0054
C[C@@H](C[C@@](C)(CS(=O)(=O)N1CCC(CCc2ncc(C(F)(F)F)cc2Cl)CC1)N(O)C=O)c1ncc(F)cn1 | 0.0042

Each compound was assayed against Disintegrin and metalloproteinase domain-containing protein 17 (Homo sapiens, UniProt P78536) (assay: Inhibition of TACE assessed as substrate cleavage by measuring increase in fluorescence after 16 hrs).
Disintegrin and metalloproteinase domain-containing protein 17, sequence (P78536 whole entry, the tested form may be a part): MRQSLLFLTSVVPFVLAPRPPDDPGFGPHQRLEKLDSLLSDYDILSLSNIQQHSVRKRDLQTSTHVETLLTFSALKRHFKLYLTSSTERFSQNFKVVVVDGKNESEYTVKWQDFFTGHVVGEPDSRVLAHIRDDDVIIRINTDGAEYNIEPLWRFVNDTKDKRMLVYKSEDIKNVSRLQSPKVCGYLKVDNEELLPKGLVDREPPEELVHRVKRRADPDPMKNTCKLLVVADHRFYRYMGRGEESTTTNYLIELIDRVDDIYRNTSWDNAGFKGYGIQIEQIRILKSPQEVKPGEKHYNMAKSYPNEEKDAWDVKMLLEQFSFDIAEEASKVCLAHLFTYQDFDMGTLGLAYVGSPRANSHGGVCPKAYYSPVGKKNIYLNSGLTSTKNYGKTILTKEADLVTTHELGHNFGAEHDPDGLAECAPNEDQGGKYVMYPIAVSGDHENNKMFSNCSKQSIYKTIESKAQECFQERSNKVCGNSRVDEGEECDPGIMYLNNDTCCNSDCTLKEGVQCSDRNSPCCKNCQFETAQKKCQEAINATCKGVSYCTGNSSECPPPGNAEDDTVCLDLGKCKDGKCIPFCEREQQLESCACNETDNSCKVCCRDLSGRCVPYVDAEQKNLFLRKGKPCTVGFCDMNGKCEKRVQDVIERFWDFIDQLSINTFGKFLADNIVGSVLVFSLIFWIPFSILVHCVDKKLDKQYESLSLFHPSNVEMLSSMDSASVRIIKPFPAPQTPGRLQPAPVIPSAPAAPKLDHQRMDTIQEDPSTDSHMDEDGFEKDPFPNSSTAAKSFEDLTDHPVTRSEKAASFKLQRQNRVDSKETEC

SMILES | IC50 [µM]
Cc1cc(C(F)(F)F)cnc1CCC1CCN(S(=O)(=O)C[C@](C)(C[C@H](C)c2ncc(F)cn2)N(O)C=O)CC1 | 24
Cc1cc(CCC2CCN(S(=O)(=O)C[C@](C)(C[C@H](C)c3ncc(F)cn3)N(O)C=O)CC2)n(C)n1 | 2.8
C[C@@H](C[C@@](C)(CS(=O)(=O)N1CCC(CCc2ncc(C(F)(F)F)cc2Cl)CC1)N(O)C=O)c1ncc(F)cn1 | 27

Each compound was assayed against Collagenase 3 (Homo sapiens, UniProt P45452) (assay: Inhibition of recombinant human MMP13 assessed as substrate cleavage by measuring increase in fluorescence after 16 hrs).

SMILES | IC50 [µM]
C[C@@H](C[C@@](C)(CS(=O)(=O)N1CCC(CCc2ccc(F)cc2Br)CC1)N(O)C=O)c1ncc(F)cn1 | 2.3
C[C@@H](C[C@@H](CS(=O)(=O)N1CCC(OCc2ccc(Cl)cc2Cl)CC1)N(O)C=O)c1ncc(F)cn1 | 0.18
Cc1cc(C(F)(F)F)cnc1CCC1CCN(S(=O)(=O)C[C@](C)(C[C@H](C)c2ncc(F)cn2)N(O)C=O)CC1 | 6.1
Cc1cc(Cl)ccc1CCC1CCN(S(=O)(=O)C[C@](C)(C[C@H](C)c2ncc(F)cn2)N(O)C=O)CC1 | 0.37
Cc1cc(CCC2CCN(S(=O)(=O)C[C@](C)(C[C@H](C)c3ncc(F)cn3)N(O)C=O)CC2)n(C)n1 | 6.7
C[C@@H](C[C@@](C)(CS(=O)(=O)N1CCC(CCc2ncc(C(F)(F)F)cc2Cl)CC1)N(O)C=O)c1ncc(F)cn1 | > 16

What follows are compounds tested against 72 kDa type IV collagenase (Homo sapiens, UniProt P08253) (assay: Inhibition of recombinant human MMP2 assessed as substrate cleavage by measuring increase in fluorescence after 16 hrs).
72 kDa type IV collagenase, sequence (P08253 whole entry): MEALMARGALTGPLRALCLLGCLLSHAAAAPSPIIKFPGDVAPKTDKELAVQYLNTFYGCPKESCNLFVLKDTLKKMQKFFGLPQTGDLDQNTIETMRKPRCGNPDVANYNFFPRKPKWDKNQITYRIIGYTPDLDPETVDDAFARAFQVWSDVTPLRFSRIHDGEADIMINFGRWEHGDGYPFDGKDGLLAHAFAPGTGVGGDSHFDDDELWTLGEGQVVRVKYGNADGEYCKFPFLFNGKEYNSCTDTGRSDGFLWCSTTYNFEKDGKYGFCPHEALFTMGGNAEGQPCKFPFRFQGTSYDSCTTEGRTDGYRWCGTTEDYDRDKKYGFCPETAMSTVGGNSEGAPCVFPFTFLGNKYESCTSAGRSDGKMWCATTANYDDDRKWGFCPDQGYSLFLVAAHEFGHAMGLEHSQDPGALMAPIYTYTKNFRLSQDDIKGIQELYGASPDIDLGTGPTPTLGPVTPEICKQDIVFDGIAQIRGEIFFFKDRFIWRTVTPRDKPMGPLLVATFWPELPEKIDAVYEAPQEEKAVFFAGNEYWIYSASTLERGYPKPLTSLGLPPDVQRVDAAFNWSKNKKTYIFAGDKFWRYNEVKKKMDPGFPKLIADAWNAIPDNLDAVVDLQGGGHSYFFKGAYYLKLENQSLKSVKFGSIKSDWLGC

SMILES | IC50 [µM]
C[C@@H](C[C@@](C)(CS(=O)(=O)N1CCC(CCc2ccc(F)cc2Br)CC1)N(O)C=O)c1ncc(F)cn1 | 1.7
Cc1cc(C(F)(F)F)cnc1CCC1CCN(S(=O)(=O)C[C@](C)(C[C@H](C)c2ncc(F)cn2)N(O)C=O)CC1 | 2.5
Cc1cc(Cl)ccc1CCC1CCN(S(=O)(=O)C[C@](C)(C[C@H](C)c2ncc(F)cn2)N(O)C=O)CC1 | 0.53
Cc1cc(CCC2CCN(S(=O)(=O)C[C@](C)(C[C@H](C)c3ncc(F)cn3)N(O)C=O)CC2)n(C)n1 | 26
C[C@@H](C[C@@](C)(CS(=O)(=O)N1CCC(CCc2ncc(C(F)(F)F)cc2Cl)CC1)N(O)C=O)c1ncc(F)cn1 | 2.8
